Measured values published in patent publication US4465843A, “Process for the preparation of derivatives of 2-pyrrole acetic acid with anti-inflammatory activity” (Laboratories Pharmedical SA, priority 1981, dated 1984).
Read-outs that look alike come from different tables or passages of the source.

Columns and labels:
[1] = test system: contorsions as induced by acetic acid; assay: analgesic activity, contorsions induced by acetic acid by intraperitoneal route in the rat (Koster et al); type: in vivo; details: ip
[2] = test system: paw edema as induced by carrageenin; assay: anti-inflammatory activity, paw edema induced by carrageenin in the female rat (Winter et al); type: in vivo; details: po
[3] = analgesic activity, acetic acid contorsions (i.p.), rat, p.os, read-out: ED50
[4] = anti-inflammatory activity, carrageenin paw edema, female rat, p.os, read-out: ED50

SMILES | ED50 [1, 3] [mg/kg] | ED50 [2, 4] [mg/kg] | ED50 ([2]; Rattus norvegicus) [mg/kg] | ED50 ([1]; Rattus norvegicus) [mg/kg]
Cc1cc(CC(=O)O)n(C)c1C(=O)c1ccc(Cl)cc1 [Example 2, acetic acid] | 2.5 | 1.7 | – | –
CCn1c(CC(=O)O)cc(C)c1C(=O)c1ccc(Cl)cc1 [Example 3] | 31 | 21.2 | – | –
CCn1c(CC(=O)O)cc(C)c1C(=O)c1ccccc1 [Example 4] | 82 | 48 | – | –
COc1ccc2c(c1)c(CC(=O)O)c(C)n2C(=O)c1ccc(Cl)cc1 [Indomethacin, reference compound] | – | – | 2.85 | –
CC(=O)Oc1ccccc1C(=O)O [acetyl salicylic acid, reference compound] | – | – | – | 110
